Experimental data reported in patent US8673586B2, “Compounds that interact with kinases” (Alchemia Limited, priority 2002, dated 2014).

Key:
MSK-1 = MSK-1 (Homo sapiens, UniProt O75582); conditions: inhibitor concentration 20 μM; cited from earlier work
S6K1 = S6K1 (Homo sapiens, UniProt P23443); conditions: inhibitor concentration 20 μM; cited from earlier work
PRK2 = PRK2 (Homo sapiens, UniProt Q16513); conditions: inhibitor concentration 20 μM; cited from earlier work
KIT = target: T1, KIT (Homo sapiens, UniProt P10721); assay: KIT kinase assay, 33P-ATP incorporation, residual activity; assay type: biochemical
T1 construct: made in house
Protocol: (§1) Compounds were tested in vitro as follows.
(§2) Recombinant protein kinases, which were expressed as fusion proteins in SF9 insect cells or E. coli, were used for all in vitro assays. The purity and identity of each kinase was checked by SDS-PAGE/silver staining and by western blot analysis with specific antibodies.
(§3) All kinase assays except for p38a (see below) were performed in 96-well micro-titre plates. The assay components included assay buffer, ATP, test compound, enzyme and substrate.
(§4) The assay for all enzymes (except for the PKC see below, contained 60 mM HEPES-NaOH, pH 7.5, 3 mM MgCl2, 3 mM MnCl2, 3 μM Na-orthovanadate, 1 mM […], 0.1 μM [γ-^33P]-ATP (approx. 5×10^5 cpm per well).
(§5) The reaction cocktails were incubated at 30° C. for 80 minutes. The reaction was stopped with 50 μl of 2% (v/v) H3PO4, plates were aspirated and washed twice with 200 μl of H2O or 0.9% (w/v) NaCl. Incorporation of ^33Pi was determined with a microplate scintillation counter.
(§6) All data is presented as residual activity, which is the activity of the enzyme in the presence of the stipulated concentration of inhibitor or compound. 100% activity is the maximum activity of the enzyme in the absence of any inhibitor or compound.
(§7) In all experiments the Z′ value was calculated according to Zhang et al to (J-H Zhang, T. D. Y Chung, K. R. Oldenburg (1999) Journal of Biomolecular Screening 4:67-73) using the standard deviations and mean values of the positive and negative controls. Z′=1−(3*Stdevneg+3*Stdevpos)/(Meanpos−Meanneg)
(§8) Only data where the Z′ value was >0.5 was used.

EGF-R = EGF-R (Homo sapiens, UniProt P00533); assay: EGF-R kinase assay, 33P-ATP incorporation, residual activity; assay type: biochemical; conditions: tested at 25 micromolar
EGF-R, sequence (P00533 25-1210, species assumed): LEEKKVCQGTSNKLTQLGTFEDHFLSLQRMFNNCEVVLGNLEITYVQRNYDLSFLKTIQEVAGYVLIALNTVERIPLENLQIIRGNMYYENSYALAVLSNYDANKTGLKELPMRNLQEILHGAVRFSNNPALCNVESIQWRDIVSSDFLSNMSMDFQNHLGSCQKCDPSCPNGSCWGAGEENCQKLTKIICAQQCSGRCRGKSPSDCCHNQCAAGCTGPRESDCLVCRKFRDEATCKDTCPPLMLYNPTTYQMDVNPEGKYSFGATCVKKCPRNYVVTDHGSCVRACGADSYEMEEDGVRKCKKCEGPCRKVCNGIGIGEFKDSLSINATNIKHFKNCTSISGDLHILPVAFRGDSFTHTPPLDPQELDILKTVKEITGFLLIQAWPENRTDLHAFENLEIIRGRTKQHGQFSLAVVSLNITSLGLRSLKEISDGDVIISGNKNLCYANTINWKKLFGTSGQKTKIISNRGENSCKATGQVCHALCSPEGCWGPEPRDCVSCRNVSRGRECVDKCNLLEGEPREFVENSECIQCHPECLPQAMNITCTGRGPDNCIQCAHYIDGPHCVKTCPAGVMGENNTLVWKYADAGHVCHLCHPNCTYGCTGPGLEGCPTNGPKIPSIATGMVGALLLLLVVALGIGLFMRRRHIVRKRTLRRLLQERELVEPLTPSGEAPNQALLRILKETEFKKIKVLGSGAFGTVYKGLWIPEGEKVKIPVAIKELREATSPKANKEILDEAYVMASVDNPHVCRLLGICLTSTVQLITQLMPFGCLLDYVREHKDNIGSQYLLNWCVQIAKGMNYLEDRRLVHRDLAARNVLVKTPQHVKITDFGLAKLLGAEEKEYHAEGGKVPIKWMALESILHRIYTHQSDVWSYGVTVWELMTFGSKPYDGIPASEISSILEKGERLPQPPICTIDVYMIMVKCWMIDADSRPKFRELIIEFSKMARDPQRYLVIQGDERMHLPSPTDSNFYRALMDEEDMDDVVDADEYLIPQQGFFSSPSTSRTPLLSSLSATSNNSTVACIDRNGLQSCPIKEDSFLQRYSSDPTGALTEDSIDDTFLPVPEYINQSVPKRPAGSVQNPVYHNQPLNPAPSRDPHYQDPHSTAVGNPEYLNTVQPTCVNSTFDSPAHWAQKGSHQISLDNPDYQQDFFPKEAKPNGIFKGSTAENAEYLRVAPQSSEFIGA
Protocol: as §1, §2, §3, §4, §5, §6, §7, §8

TIE2 = target: T2, TIE2 (Homo sapiens, UniProt Q02763); assay: TIE2 kinase assay, 33P-ATP incorporation, residual activity; assay type: biochemical
T2 construct: made in house
Protocol: as §1, §2, §3, §4, §5, §6, §7, §8

PDGF-Ralpha = target: T3, PDGF-Ralpha (Homo sapiens, UniProt P16234); assay: PDGF-Ralpha kinase assay, 33P-ATP incorporation, residual activity; assay type: biochemical; conditions: tested at 25 micromolar
T3 construct: made in house
Protocol: as §1, §2, §3, §4, §5, §6, §7, §8

CDK2/CycA = CDK2/CycA (Homo sapiens, UniProt P24941); assay: CDK2/CycA kinase assay, 33P-ATP incorporation, residual activity; assay type: biochemical; conditions: tested at 25 micromolar
Protocol: as §1, §2, §3, §4, §5, §6, §7, §8

MET = target: T4, MET (Homo sapiens, UniProt P08581); assay: MET kinase assay, 33P-ATP incorporation, residual activity; assay type: biochemical; parameters: key: % residual kinase activity (100% = no inhibitor); conditions: tested at 25 micromolar
T4 construct: made in house
T4 sequence (P08581 25-1390): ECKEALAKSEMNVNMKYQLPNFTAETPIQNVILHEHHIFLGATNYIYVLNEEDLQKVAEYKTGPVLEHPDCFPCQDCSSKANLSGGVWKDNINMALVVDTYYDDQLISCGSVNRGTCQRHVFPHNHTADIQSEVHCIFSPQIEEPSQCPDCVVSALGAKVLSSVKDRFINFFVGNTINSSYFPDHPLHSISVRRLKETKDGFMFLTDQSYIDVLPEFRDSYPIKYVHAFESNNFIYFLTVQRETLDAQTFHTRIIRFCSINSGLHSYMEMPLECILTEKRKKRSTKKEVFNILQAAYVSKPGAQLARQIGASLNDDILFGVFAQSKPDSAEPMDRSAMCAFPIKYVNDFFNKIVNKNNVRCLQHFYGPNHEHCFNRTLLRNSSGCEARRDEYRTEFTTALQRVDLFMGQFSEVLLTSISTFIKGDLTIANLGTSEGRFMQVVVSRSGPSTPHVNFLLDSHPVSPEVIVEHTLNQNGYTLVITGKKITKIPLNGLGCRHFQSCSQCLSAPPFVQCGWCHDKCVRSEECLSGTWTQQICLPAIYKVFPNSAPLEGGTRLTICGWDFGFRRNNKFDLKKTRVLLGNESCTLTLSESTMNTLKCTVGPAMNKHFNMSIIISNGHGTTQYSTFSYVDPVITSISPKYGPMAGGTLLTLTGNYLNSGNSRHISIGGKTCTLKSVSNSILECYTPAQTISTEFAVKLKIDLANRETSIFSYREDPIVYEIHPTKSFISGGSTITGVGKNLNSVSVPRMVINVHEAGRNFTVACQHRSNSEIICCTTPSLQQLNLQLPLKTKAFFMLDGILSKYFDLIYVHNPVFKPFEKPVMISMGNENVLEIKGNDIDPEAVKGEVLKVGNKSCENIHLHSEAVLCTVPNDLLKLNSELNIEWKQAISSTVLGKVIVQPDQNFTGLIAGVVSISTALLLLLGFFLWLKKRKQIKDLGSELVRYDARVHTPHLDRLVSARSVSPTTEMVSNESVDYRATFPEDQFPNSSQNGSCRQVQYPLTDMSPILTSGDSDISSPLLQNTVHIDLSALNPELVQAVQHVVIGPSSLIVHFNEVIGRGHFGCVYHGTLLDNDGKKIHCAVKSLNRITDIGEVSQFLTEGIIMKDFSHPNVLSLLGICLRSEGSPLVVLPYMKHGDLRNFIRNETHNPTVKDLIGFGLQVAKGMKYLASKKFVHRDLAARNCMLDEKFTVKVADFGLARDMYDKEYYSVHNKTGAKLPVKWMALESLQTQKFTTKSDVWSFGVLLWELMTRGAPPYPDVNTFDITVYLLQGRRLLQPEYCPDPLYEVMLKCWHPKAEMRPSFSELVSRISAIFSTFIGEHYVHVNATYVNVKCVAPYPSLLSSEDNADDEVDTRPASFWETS
Protocol: as §1, §2, §3, §4, §5, §6, §7, §8

VEGF-R2 = target: T5, VEGF-R2 (Homo sapiens, UniProt P35968); assay: VEGF-R2 kinase assay, 33P-ATP incorporation, residual activity; assay type: biochemical; parameters: key: % residual kinase activity (100% = no inhibitor)
T5 construct: made in house
Protocol: as §1, §2, §3, §4, §5, §6, §7, §8

ABL = ABL (Homo sapiens, UniProt P00519); assay: ABL kinase assay, 33P-ATP incorporation, residual activity; assay type: biochemical; conditions: tested at 25 micromolar
ABL, sequence (P00519 whole entry, species assumed): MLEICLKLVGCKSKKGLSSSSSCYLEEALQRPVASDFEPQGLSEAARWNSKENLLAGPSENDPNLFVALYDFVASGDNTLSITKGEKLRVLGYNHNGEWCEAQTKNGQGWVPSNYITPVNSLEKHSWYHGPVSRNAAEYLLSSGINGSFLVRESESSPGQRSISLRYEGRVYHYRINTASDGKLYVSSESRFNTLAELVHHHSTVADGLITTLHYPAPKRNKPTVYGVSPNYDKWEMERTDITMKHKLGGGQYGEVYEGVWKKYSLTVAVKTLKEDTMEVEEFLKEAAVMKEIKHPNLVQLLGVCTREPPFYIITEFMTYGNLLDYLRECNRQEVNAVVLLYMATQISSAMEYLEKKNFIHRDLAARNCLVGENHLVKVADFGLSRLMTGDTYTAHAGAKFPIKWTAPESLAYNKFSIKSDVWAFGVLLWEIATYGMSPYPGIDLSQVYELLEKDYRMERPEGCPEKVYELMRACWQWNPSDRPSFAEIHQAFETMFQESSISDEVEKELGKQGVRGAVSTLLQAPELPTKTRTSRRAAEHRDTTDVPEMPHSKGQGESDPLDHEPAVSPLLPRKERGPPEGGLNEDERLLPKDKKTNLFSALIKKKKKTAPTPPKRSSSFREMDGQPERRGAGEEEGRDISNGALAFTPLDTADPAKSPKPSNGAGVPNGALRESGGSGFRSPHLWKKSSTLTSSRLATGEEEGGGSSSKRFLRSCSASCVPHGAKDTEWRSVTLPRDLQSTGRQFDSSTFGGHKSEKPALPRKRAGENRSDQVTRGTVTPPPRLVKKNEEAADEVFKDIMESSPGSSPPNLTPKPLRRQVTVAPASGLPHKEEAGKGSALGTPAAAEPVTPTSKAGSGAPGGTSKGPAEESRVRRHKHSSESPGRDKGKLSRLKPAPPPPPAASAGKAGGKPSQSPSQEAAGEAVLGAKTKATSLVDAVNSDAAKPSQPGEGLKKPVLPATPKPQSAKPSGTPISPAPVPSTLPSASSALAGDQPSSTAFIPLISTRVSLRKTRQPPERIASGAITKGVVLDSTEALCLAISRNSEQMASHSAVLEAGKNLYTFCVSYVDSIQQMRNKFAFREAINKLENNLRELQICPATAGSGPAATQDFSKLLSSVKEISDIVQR
Protocol: as §1, §2, §3, §4, §5, §6, §7, §8

PKC-beta1 = PKC-beta1 (Homo sapiens, UniProt P05771); assay: PKC-beta1 kinase assay, 33P-ATP incorporation, residual activity; assay type: biochemical; conditions: tested at 25 micromolar
PKC-beta1, sequence (P05771 whole entry): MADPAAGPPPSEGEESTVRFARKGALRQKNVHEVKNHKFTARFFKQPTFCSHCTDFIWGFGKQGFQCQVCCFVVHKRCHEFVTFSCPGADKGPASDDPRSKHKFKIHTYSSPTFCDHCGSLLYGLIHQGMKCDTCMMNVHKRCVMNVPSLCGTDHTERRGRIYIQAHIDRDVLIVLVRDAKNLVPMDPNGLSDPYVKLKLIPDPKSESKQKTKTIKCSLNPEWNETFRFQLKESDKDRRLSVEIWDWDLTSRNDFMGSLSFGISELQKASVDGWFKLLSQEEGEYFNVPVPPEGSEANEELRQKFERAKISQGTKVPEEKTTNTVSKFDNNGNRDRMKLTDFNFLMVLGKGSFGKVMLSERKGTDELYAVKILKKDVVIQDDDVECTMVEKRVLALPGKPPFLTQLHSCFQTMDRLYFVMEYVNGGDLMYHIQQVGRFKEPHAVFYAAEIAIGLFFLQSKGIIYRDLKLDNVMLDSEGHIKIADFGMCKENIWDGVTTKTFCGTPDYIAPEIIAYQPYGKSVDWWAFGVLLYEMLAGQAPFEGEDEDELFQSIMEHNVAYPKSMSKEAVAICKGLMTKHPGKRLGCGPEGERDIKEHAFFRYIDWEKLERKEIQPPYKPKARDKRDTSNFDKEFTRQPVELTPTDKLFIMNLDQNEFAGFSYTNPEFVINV
Protocol: as §1, §2, §3
The assay for the PKCs contained 60 mM HEPES-NaOH, pH 7.5, 1 mM EDTA, 1.25 mM EGTA, 5 mM MgCl2, 1.32 mM CaCl2, 5 μg/ml Phosphatidylserine, 1 μg/ml 1.2 Dioleyl-glycerol, 1.2 mM DTT, 50 μg/ml PEG20000, 0.1 μM [γ-^33P]-ATP (approx. 5×10^5 cpm per well).
as §5, §6, §7, §8

[1] = target: mitogen-activated protein kinase p38α (Homo sapiens, UniProt Q16539); assay: p38α assay, NanoCarrier 2080 format, fluorescence polarization (2D-FIDA anisotropy); assay type: biochemical
mitogen-activated protein kinase p38α, sequence (Q16539 whole entry, species assumed): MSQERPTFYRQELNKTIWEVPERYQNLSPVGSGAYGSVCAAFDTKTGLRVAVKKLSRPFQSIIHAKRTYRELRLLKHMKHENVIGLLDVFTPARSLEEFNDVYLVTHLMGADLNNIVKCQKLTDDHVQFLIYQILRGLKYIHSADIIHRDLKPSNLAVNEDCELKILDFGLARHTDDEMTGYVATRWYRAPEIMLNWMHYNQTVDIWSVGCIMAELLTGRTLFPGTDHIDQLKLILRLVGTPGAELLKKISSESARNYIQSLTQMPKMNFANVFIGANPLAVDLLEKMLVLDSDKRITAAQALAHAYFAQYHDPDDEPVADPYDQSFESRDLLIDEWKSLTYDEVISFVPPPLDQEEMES
Protocol: as §1, §2
The mitogen-activated protein kinase p38α assays were done in a proprietary microassay NanoCarrier™ 2080 format. In these assays phosphorylation was detected by a phospho-substrate specific monoclonal antibody in an indirect competition assay. The degree of binding of the antibody to the phospho-substrate was measured by fluorescence polarization using 2D-FIDA anisotrophy. In these experiments the final concentration of the enzyme was 1.6 nM and the substrate was 2 μM.
as §6, §7, §8

[2] = compounds marked !: tested at 2.5 micromolar

Structure (SMILES)	residual activity MSK1 (MSK-1) [%]	residual activity S6K1 (S6K1) [%]	residual activity PRK2 (PRK2) [%]	c-Kit (KIT; tested at 25 micromolar)	EGF-R (EGF-R)	Tie2 (TIE2; tested at 25 micromolar)	PDGFalpha (PDGF-Ralpha)	CDK2 (CDK2/CycA)	MET (MET)	VEGF (VEGF-R2; tested at 25 micromolar)	ABL (ABL)	PKC (PKC-beta1)	P38 ([1]; tested at 25 micromolar)	c-Kit (KIT; [2])	Tie2 (TIE2; [2])	VEGF (VEGF-R2; [2])	P38 [1, 2]
O=S(=O)(c1cccc2cnccc12)N1CCCNCC1 [HA1077]	19	32	15	–	–	–	–	–	–	–	–	–	–	–	–	–	–
Cc1cccc(CSc2nc3cc(C(N)=O)ccc3n2C[C@H]2O[C@@H](n3cnc4c(N)ncnc43)[C@H](O)[C@@H]2O)c1 [compound 100]	–	–	–	52	69	42	106	70	88	58	109	80	–	–	–	–	–
CCCCCCCCSc1nc2cc(C(N)=O)ccc2n1C[C@H]1O[C@@H](n2nnc(C(N)=O)c2-c2ccccc2)[C@H](O)[C@@H]1O [compound 146]	–	–	–	53	94	71	127	270	78	101	115	142	–	–	–	–	–
Nc1ncnc2c1ncn2[C@@H]1O[C@H](CN2C(=O)C(Cc3ccccc3)N(Cc3ccccc3[N+](=O)[O-])C2=O)[C@@H](O)[C@H]1O (some centres unmarked) [compound 212]	–	–	–	12	23	1	38	25	46	10	41	26	–	–	–	–	–
Nc1ncnc2c1ncn2[C@@H]1O[C@H](CN2C(=O)C(Cc3ccccc3)N(Cc3cccn3S(=O)(=O)c3ccccc3)C2=O)[C@@H](O)[C@H]1O (some centres unmarked) [compound 223]	–	–	–	109	22	0	17	40	31	11	24	10	–	–	–	–	–
CCn1c2ccccc2c2ccc(CN3C(=O)N(C[C@H]4O[C@@H](n5nnc(C(N)=O)c5-c5ccccc5)[C@H](O)[C@@H]4O)C(=O)C3Cc3ccccc3)cc21 (some centres unmarked) [compound 246]	–	–	–	6	15	−1	28	26	27	8	30	13	–	–	–	–	–
CCCCCCCCOc1ccc(-c2nc3cc(C(N)=O)ccc3n2C[C@H]2O[C@@H](n3nnc(C(N)=O)c3-c3ccccc3)[C@H](O)[C@@H]2O)cc1 [compound 279]	–	–	–	17	66	12	85	20	72	31	6	80	–	–	–	–	–
CCCc1c(C(N)=O)nnn1[C@@H]1O[C@H](CNCc2nc3cc(C(N)=O)ccc3n2-c2ccc(-c3ccccc3)cc2)[C@@H](O)[C@H]1O [compound 345]	–	–	–	40	58	41	82	67	87	54	74	65	–	–	–	–	–
CCCc1c(C(N)=O)nnn1[C@@H]1O[C@H](Cn2c(-c3ccc(F)c(C(F)(F)F)c3)nc3cc(C(N)=O)ccc32)[C@@H](O)[C@H]1O [compound 456]	–	–	–	92	96	91	113	28	103	96	107	104	–	–	–	–	–
Nc1ncnc2c1ncn2[C@@H]1O[C@H](CN2C(=O)C(Cc3ccccc3)N(Cc3ccccc3Sc3ccc(Cl)cc3)C2=O)[C@@H](O)[C@H]1O (some centres unmarked) [compound 604]	–	–	–	13	27	3	46	30	46	18	49	50	100	–	–	–	–
Nc1ncnc2c1ncn2[C@@H]1O[C@H](CN2C(=O)C(Cc3ccccc3)N(Cc3cccs3)C2=O)[C@@H](O)[C@H]1O (some centres unmarked) [compound 605]	–	–	–	18	20	5	56	26	54	14	55	27	100	–	–	–	–
NC(=O)c1nnn([C@@H]2O[C@H](Cn3c(-c4ccc(OCc5ccccc5)cc4)nc4cc(Cl)c(Cl)cc43)[C@@H](O)[C@H]2O)c1-c1ccccc1 [compound 668]	–	–	–	–	–	–	–	–	–	–	–	–	–	16	1	–	–
NC(=O)c1nnn([C@@H]2O[C@H](Cn3c(-c4ccc(OCc5ccccc5)cc4)nc4cc(Cl)c(Cl)cc43)[C@@H](O)[C@H]2O)c1-c1ccc(Cl)cc1 [compound 669]	–	–	–	–	–	–	–	–	–	–	–	–	–	11	1	34	97
COc1ccc(-c2c(C(N)=O)nnn2[C@@H]2O[C@H](Cn3c(-c4ccc(OCc5ccccc5)cc4)nc4cc(Cl)c(Cl)cc43)[C@@H](O)[C@H]2O)cc1 [compound 670]	–	–	–	–	–	–	–	–	–	–	–	–	–	9	1	23	–
CCCCCCCCOc1ccc(-c2nc3c(NC)ncnc3n2C[C@H]2O[C@@H](n3nnc(C(N)=O)c3-c3ccccc3)[C@H](O)[C@@H]2O)cc1 [compound 725]	–	–	–	–	–	–	–	–	–	–	–	–	–	6	10	–	–
Nc1ncnc2c1ncn2[C@@H]1O[C@H](Cn2c(-c3ccc(OCc4ccccc4)cc3)nc3ccccc32)[C@@H](O)[C@H]1O [compound 912]	–	–	–	38	88	72	96	119	88	44	96	96	70	–	–	–	–
